Values quoted from earlier work in US20050002974A1, “Itch-relieving cosmetic or dermatological preparation” (Beiersdorf AG, priority 2002, published 2005).

Columns and labels:
[1] = used in aqueous solutions
[2] = rubbed into the skin

| Compound | local anesthetic properties [1] | feel on the skin [2] |
| --- | --- | --- |
| polyethylene glycol (9) monododecyl ether [polidocanol] | strong local anesthetic properties | – |
| CC1CCC(C(C)C)C(O)C1 (centres unmarked) [menthol, Menthol] | – | pleasant cooling feel |
